According to ChEMBL document CHEMBL4000218, “Explicit treatment of active-site waters enhances quantum mechanical/implicit solvent scoring: Inhibition of CDK2 by new pyrazolo[1,5-a]pyrimidines” (Eur J Med Chem, 2017):

What follows are compounds tested against Cyclin-dependent kinase 2/cyclin E1 (Homo sapiens, UniProt P24941) (assay: Inhibition of CDK2/cyclin E (unknown origin) expressed in baculovirus infected insect Sf9 cells using histone H1 as substrate in presence of [gamma-33P]ATP).

Point of comparison: c1ccc(-c2ccc(-c3cc(NCc4cccnc4)n4nccc4n3)cc2)cc1, IC50 12.6 µM. Against it:
- NC(=O)c1ccc(-c2ccc(-c3cc(NCc4cccnc4)n4ncc(Br)c4n3)cc2)c(O)c1 — 840-fold lower, 0.015 µM
- CN(C)C(=O)c1ccc(-c2ccc(-c3cc(NCc4cccnc4)n4ncc(Br)c4n3)cc2)cc1 — 200-fold lower, 0.064 µM
- OCc1ccc(-c2ccc(-c3cc(NCc4cccnc4)n4nccc4n3)cc2)cc1 — 2.1-fold lower, 6.11 µM
- NC(=O)c1ccc(-c2ccc(-c3cc(NCc4cccnc4)n4nccc4n3)cc2)cc1O — 4.7-fold lower, 2.67 µM
- Nc1ccc(-c2ccc(-c3cc(NCc4cccnc4)n4nccc4n3)cc2)cc1 — 2.6-fold lower, 4.91 µM
- CCc1cnn2c(NCc3cccnc3)cc(-c3ccc(-c4ccc(C(N)=O)cc4)cc3)nc12 — 700-fold lower, 0.018 µM
- NC(=O)c1ccc(-c2ccc(-c3cc(NCc4cccnc4)n4nccc4n3)cc2)cc1 — 3.2-fold lower, 3.94 µM
- NC(=O)c1ccc(-c2ccc(-c3cc(NCc4cccnc4)n4ncc(Br)c4n3)cc2)cc1O — 240-fold lower, 0.052 µM
- CN(C)C(=O)c1ccc(-c2ccc(-c3cc(NCc4cccnc4)n4nccc4n3)cc2)cc1 — 6.4-fold lower, 1.97 µM
- CCc1cnn2c(NCc3cccnc3)cc(-c3ccc(-c4ccc(CO)cc4)cc3)nc12 — 97-fold lower, 0.13 µM
- N#CCCc1cc(-c2ccc(-c3cc(NCc4cccnc4)n4nccc4n3)cc2)ccc1C(N)=O — 2.3-fold lower, 5.45 µM
- COc1cc(-c2ccc(-c3cc(NCc4cccnc4)n4nccc4n3)cc2)ccc1C(N)=O — 2.3-fold lower, 5.53 µM
- N#CCCc1cc(-c2ccc(-c3cc(NCc4cccnc4)n4ncc(Br)c4n3)cc2)ccc1C(N)=O — 240-fold lower, 0.053 µM
- Nc1ccc(-c2ccc(-c3cc(NCc4cccnc4)n4ncc(Br)c4n3)cc2)cc1 — 90-fold lower, 0.14 µM
- Brc1cnn2c(NCc3cccnc3)cc(-c3ccc(-c4ccccc4)cc3)nc12 — 26-fold lower, 0.49 µM
- CCc1cnn2c(NCc3cccnc3)cc(-c3ccc(-c4ccc(C(N)=O)c(O)c4)cc3)nc12 — 410-fold lower, 0.031 µM
- Oc1ccc(-c2ccc(-c3cc(NCc4cccnc4)n4ncc(Br)c4n3)cc2)cc1 — 90-fold lower, 0.14 µM
- OCc1ccc(-c2ccc(-c3cc(NCc4cccnc4)n4ncc(Br)c4n3)cc2)cc1 — 280-fold lower, 0.045 µM
- NC(=O)c1ccc(-c2ccc(-c3cc(NCc4cccnc4)n4ncc(Br)c4n3)cc2)cc1 — 340-fold lower, 0.037 µM
- Oc1ccc(-c2ccc(-c3cc(NCc4cccnc4)n4nccc4n3)cc2)cc1 — 3.3-fold lower, 3.86 µM
